Assay results published in US20240343717A1, “MICROBIOCIDAL PYRAZOLE DERIVATIVES” (SYNGENTA CROP PROTECTION AG, priority 2021, published 2024).

What was measured:
Alternaria solani = Alternaria solani / tomato / leaf disc (early blight); type: in vivo; details: foliar, tomato leaf disks, sprayed 2 days before inoculation, compared to untreated control
Procedure: Example B1: Alternaria solani/Tomato/Leaf Disc (Early Blight) Tomato leaf disks cv. Baby are placed on agar in multiwell plates (24-well format) and sprayed with the formulated test compound diluted in water. The leaf disks are inoculated with a spore suspension of the fungus 2 days after application. The inoculated leaf disks are incubated at 23° C./21° C.

[1] = system: Blumeria graminis f. sp. tritici (Erysiphe graminis f. sp. tritici); assay: Blumeria graminis f. sp. tritici / wheat / leaf disc preventative (powdery mildew on wheat); type: in vivo; details: foliar, wheat leaf segments, inoculated 1 day after application
Procedure: Example B4: Blumeria graminis f. Sp. Tritici (Erysiphe graminis f. Sp. Tritici)/Wheat/Leaf Disc Preventative (Powdery Mildew on Wheat) Wheat leaf segments cv. Kanzler are placed on agar in a multiwell plate (24-well format) and sprayed with the formulated test compound diluted in water. The leaf disks are inoculated by shaking powdery mildew infected plants above the test plates 1 day after application. The inoculated leaf disks are incubated at 20° C. and 60% rh under a light regime of 24 h darkness followed by 12 h light/12 h darkness in a climate chamber and the activity of a compound is assessed as percent disease control compared to untreated when an appropriate level of disease damage appears on untreated check leaf segments (6-8 days after application).

[2] = system: Glomerella lagenarium (Colletotrichum lagenarium); assay: Glomerella lagenarium (Colletotrichum lagenarium) / liquid culture (anthracnose); type: cell-based; details: Colletotrichum orbiculare, growth inhibition photometrically 3-4 days after application, read-out: control of Glomerella lagenarium
Procedure: (§1) Example B3: Glomerella lagenarium (Colletotrichum lagenarium)/Liquid Culture (Anthracnose) Conidia of the fungus from cryogenic storage are directly mixed into nutrient broth (PDB potato dextrose broth). After placing a (DMSO) solution of test compound into a microtiter plate (96-well format), the nutrient broth containing the fungal spores is added. The test plates are incubated at 24° C. and the inhibition of growth is measured photometrically 3-4 days after application.

[3] = system: Mycosphaerella graminicola (Septoria tritici); assay: Mycosphaerella graminicola (Septoria tritici) / liquid culture (Septoria blotch); type: cell-based; details: Zymoseptoria tritici, growth inhibition photometrically 4-5 days after application, read-out: control of Mycosphaerella graminicola
Procedure: as §1, with “B16: Mycosphaerella graminicola (Septoria tritici)/Liquid” for “B3: Glomerella lagenarium (Colletotrichum lagenarium)/Liquid”, “(Septoria Blotch)” for “(Anthracnose)”, “determined” for “measured”, “4-5” for “3-4”

Pyrenophora teres = Pyrenophora teres / barley / leaf disc preventative (net blotch); type: in vivo; details: foliar, barley leaf segments, inoculated 2 days after application
Procedure: Example B14: Pyrenophora teres/Barley/Leaf Disc Preventative (Net Blotch) Barley leaf segments cv. Hasso are placed on agar in a multiwell plate (24-well format) and sprayed with the formulated test compound diluted in water. The leaf segments are inoculated with a spore suspension of the fungus 2 days after application. The inoculated leaf segments are incubated at 20° C. and 65% rh under a light regime of 12 h light/12 h darkness in a climate cabinet and the activity of a compound is assessed as disease control compared to untreated when an appropriate level of disease damage appears in untreated check leaf segments (5-7 days after application).

[4] = system: Monographella nivalis (Microdochium nivale); assay: Monographella nivalis (Microdochium nivale) / liquid culture (foot rot cereals); type: cell-based; details: growth inhibition photometrically 4-5 days after application, read-out: control of Monographella nivalis
Procedure: as §1, with “B9: Monographella nivalis (Microdochium nivale)/Liquid” for “B3: Glomerella lagenarium (Colletotrichum lagenarium)/Liquid”, “(Foot Rot Cereals)” for “(Anthracnose)”, “determined” for “measured”, “4-5” for “3-4”

[5] = system: Botryotinia fuckeliana (Botrytis cinerea); assay: Botryotinia fuckeliana (Botrytis cinerea) / liquid culture (gray mould); type: cell-based; details: growth inhibition photometrically 3-4 days after application, read-out: control of Botryotinia fuckeliana
Procedure: as §1, with “B2: Botryotinia fuckeliana (Botrytis cinerea)/Liquid” for “B3: Glomerella lagenarium (Colletotrichum lagenarium)/Liquid”, “(Gray Mould)” for “(Anthracnose)”, “(Vogels” for “(PDB potato dextrose”, “determined” for “measured”

[6] = system: Phaeosphaeria nodorum (Septoria nodorum); assay: Phaeosphaeria nodorum (Septoria nodorum) / wheat / leaf disc preventative (glume blotch); type: in vivo; details: Parastagonospora nodorum, foliar, wheat leaf segments, inoculated 2 days after application
Procedure: Example B8: Phaeosphaeria nodorum (Septoria nodorum)/Wheat/Leaf Disc Preventative (Glume Blotch) Wheat leaf segments cv. Kanzler are placed on agar in a multiwell plate (24-well format) and sprayed with the formulated test compound diluted in water. The leaf disks are inoculated with a spore suspension of the fungus 2 days after application. The inoculated test leaf disks are incubated at 20° C. and 75% rh under a light regime of 12 h light/12 h darkness in a climate cabinet and the activity of a compound is assessed as percent disease control compared to untreated when an appropriate level of disease damage appears in untreated check leaf disks (5-7 days after application).

[7] = system: Mycosphaerella arachidis (Cercospora arachidicola); assay: Mycosphaerella arachidis (Cercospora arachidicola) / liquid culture (early leaf spot); type: cell-based; details: growth inhibition photometrically 4-5 days after application, read-out: control of Mycosphaerella arachidis
Procedure: as §1, with “B10: Mycosphaerella arachidis (Cercospora arachidicola)/Liquid” for “B3: Glomerella lagenarium (Colletotrichum lagenarium)/Liquid”, “(Early Leaf Spot)” for “(Anthracnose)”, “determined” for “measured”, “4-5” for “3-4”

Fusarium culmorum = assay: microbe, parasite or virus in culture; type: cell-based; details: read-out: control of Fusarium culmorum

Cn1cc(C(C)(CNC(=O)c2cc(-c3ccc(F)cc3F)no2)c2cccc(Cl)n2)cn1 (centres unmarked) [Compound P-4, N-[2-(6-chloro-2-pyridyl)-2-(1-methylpyrazol-4-yl)propyl]-3-(2,4-difluorophenyl)isoxazole-5-carboxamide]
≥ 80%: pest or weed control at 200 ppm (Alternaria solani) | pest or weed control at 200 ppm [1] | inhibition of growth at 20 ppm [2]

Cn1cc(C(C)(CNC(=O)c2nnc(-c3ccc(F)cc3F)s2)c2ccccn2)cn1 (centres unmarked) [Compound P-6, 5-(2,4-difluorophenyl)-N-[2-(1-methylpyrazol-4-yl)-2-(2-pyridyl)propyl]-1,3,4-thiadiazole-2-carboxamide]
≥ 80%: inhibition of growth at 20 ppm [3] | pest or weed control at 200 ppm (Pyrenophora teres) | inhibition of growth at 20 ppm [4] | pest or weed control at 200 ppm (Alternaria solani) | inhibition of growth at 20 ppm [5] | pest or weed control at 200 ppm [6] | pest or weed control at 200 ppm [1] | inhibition of growth at 20 ppm [2]

Cn1cc(C(C)(CNC(=O)c2cc(-c3ccc(F)cc3F)on2)c2ccccn2)cn1 (centres unmarked) [Compound P-11, 5-(2,4-difluorophenyl)-N-[2-(1-methylpyrazol-4-yl)-2-(2-pyridyl)propyl] isoxazole-3-carboxamide]
≥ 80%: inhibition of growth at 20 ppm [3] | pest or weed control at 200 ppm (Pyrenophora teres) | inhibition of growth at 20 ppm [4] | pest or weed control at 200 ppm (Alternaria solani) | inhibition of growth at 20 ppm [5] | pest or weed control at 200 ppm [6] | pest or weed control at 200 ppm [1] | inhibition of growth at 20 ppm [2]

Cn1cc(C(C)(CNC(=O)c2cc(-c3ccc(F)cc3F)on2)c2cncc(Cl)n2)cn1 (centres unmarked) [Compound P-21, N-[2-(6-chloropyrazin-2-yl)-2-(1-methylpyrazol-4-yl)propyl]-5-(2,4-difluorophenyl) isoxazole-3-carboxamide]
≥ 80%: inhibition of growth at 20 ppm [3] | pest or weed control at 200 ppm (Pyrenophora teres) | inhibition of growth at 20 ppm [5] | pest or weed control at 200 ppm [1]

CC(C)C(CNC(=O)c1cc(-c2ccc(F)cc2F)on1)(c1cnn(C)c1)c1cccc(Cl)n1 (centres unmarked) [Compound P-32, N-[2-(6-chloro-2-pyridyl)-3-methyl-2-(1-methylpyrazol-4-yl)butyl]-5-(2,4-difluorophenyl) isoxazole-3-carboxamide]
≥ 80%: inhibition of growth at 20 ppm [3] | pest or weed control at 200 ppm (Pyrenophora teres) | inhibition of growth at 20 ppm [4] | pest or weed control at 200 ppm (Alternaria solani) | inhibition of growth at 20 ppm [5] | pest or weed control at 200 ppm [6]

CN(C)C(=O)c1cccc(C(C)(CNC(=O)c2cc(-c3ccc(F)cc3F)on2)c2cnn(C)c2)n1 (centres unmarked) [Compound P-44, 5-(2,4-difluorophenyl)-N-[2-[6-(dimethylcarbamoyl)-2-pyridyl]-2-(1-methylpyrazol-4-yl)propyl]isoxazole-3-carboxamide]
≥ 80%: pest or weed control at 200 ppm (Pyrenophora teres) | pest or weed control at 200 ppm (Alternaria solani) | pest or weed control at 200 ppm [6]

CC(=O)c1cccc(C(C)(CNC(=O)c2cc(-c3ccc(F)cc3F)on2)c2cnn(C)c2)n1 (centres unmarked) [Compound P-48, N-[2-(6-acetyl-2-pyridyl)-2-(1-methylpyrazol-4-yl)propyl]-5-(2,4-difluorophenyl) isoxazole-3-carboxamide]
≥ 80%: inhibition of growth at 20 ppm [3] | pest or weed control at 200 ppm (Pyrenophora teres) | inhibition of growth at 20 ppm [7] | inhibition of growth at 20 ppm [4] | pest or weed control at 200 ppm (Alternaria solani) | inhibition of growth at 20 ppm [5] | pest or weed control at 200 ppm [6] | inhibition of growth at 20 ppm [2]

CO/N=C(/C)c1ccc(C(C)(CNC(=O)c2cc(-c3ccc(F)cc3F)on2)c2cnn(C)c2)nc1 (centres unmarked) [Compound P-61, 5-(2,4-difluorophenyl)-N-[2-[5-[(Z)-N-methoxy-C-methyl-carbonimidoyl]-2-pyridyl]-2-(1-methylpyrazol-4-yl)propyl]isoxazole-3-carboxamide]
≥ 80%: inhibition of growth at 20 ppm [3] | pest or weed control at 200 ppm (Pyrenophora teres) | inhibition of growth at 20 ppm [7] | inhibition of growth at 20 ppm [4] | pest or weed control at 200 ppm (Alternaria solani) | pest or weed control at 200 ppm [6] | inhibition of growth at 20 ppm [2]

Cn1cc(C(C)(CNC(=O)c2cc(-c3ccc(F)cc3F)on2)c2ccnc(Cl)n2)cn1 (centres unmarked) [Compound P-64, N-[2-(2-chloropyrimidin-4-yl)-2-(1-methylpyrazol-4-yl)propyl]-5-(2,4-difluorophenyl) isoxazole-3-carboxamide]
≥ 80%: inhibition of growth at 20 ppm [3] | pest or weed control at 200 ppm (Pyrenophora teres) | inhibition of growth at 20 ppm [4] | pest or weed control at 200 ppm (Alternaria solani) | inhibition of growth at 20 ppm [5] | pest or weed control at 200 ppm [6] | pest or weed control at 200 ppm [1] | inhibition of growth at 20 ppm [2]

Cn1cc(C(C)(CNC(=O)c2noc(-c3ccc(F)cc3F)n2)c2cccc(Cl)n2)cn1 (centres unmarked) [Compound P-83, N-[2-(6-chloro-2-pyridyl)-2-(1-methylpyrazol-4-yl)propyl]-5-(2,4-difluorophenyl)-1,2,4-oxadiazole-3-carboxamide]
≥ 80%: inhibition of growth at 20 ppm (Fusarium culmorum) | inhibition of growth at 20 ppm [3] | pest or weed control at 200 ppm (Pyrenophora teres) | inhibition of growth at 20 ppm [7] | inhibition of growth at 20 ppm [4] | pest or weed control at 200 ppm (Alternaria solani) | inhibition of growth at 20 ppm [5] | pest or weed control at 200 ppm [6] | pest or weed control at 200 ppm [1] | inhibition of growth at 20 ppm [2]

CCCCc1nnc(C(=O)NCC(C)(c2cnn(C)c2)c2cccc(Cl)n2)s1 (centres unmarked) [Compound P-108, 5-butyl-N-[2-(6-chloro-2-pyridyl)-2-(1-methylpyrazol-4-yl)propyl]-1,3,4-thiadiazole-2-carboxamide]
≥ 80%: inhibition of growth at 20 ppm (Fusarium culmorum) | inhibition of growth at 20 ppm [3] | inhibition of growth at 20 ppm [7] | inhibition of growth at 20 ppm [4] | inhibition of growth at 20 ppm [5] | inhibition of growth at 20 ppm [2]
